Patent US20090221538A1, “METHODS OF TREATING MULTIPLE SCLEROSIS BY ADMINISTERING PULSE DOSE CALCITRIOL” (priority 2008, published 2009)
“And” between values parts separate entries of the source, which are not always exact repeats. Equal entries are not always repeated. Marks after values point to notes of the source that are not given here.

System: B10.PL mice with acute EAE
Assay: Treatment of MBP-induced acute EAE in B10.PL mice, daily clinical EAE disability score
Type: in vivo
Design: key to cumulative disability (sum of daily disability scores; mean) / Cumulative disability / EAE severity (initial) / Remission (minimum) / EAE severity (final) / EAE severity (decrease): EAE score 0 = normal to 5 = moribund; cumulative = sum of daily scores
Details: for EAE severity (initial): score at randomization
Method: Breeding pairs of B10.PL-H2^uH2-T18^a/(73NS)/SnJ (hereafter B10.PL) mice were purchased from the Jackson Laboratory (Bar Harbor, Me.). The experimental B10.PL mice were either bred in the pathogen-free mouse colony at the University of Wisconsin Department of Biochemistry, or purchased from the Jackson Laboratory. Mice were housed at 23° C. with 40-60% humidity, 12 hr light-dark cycles, and ad libidum access to water. Unless stated otherwise, the mice were fed Lab Diet #5008 (PMI Nutrition International, Inc., Brentwood, Mo.) containing 0.33 μg/d vitamin D3 and 1% calcium. Experiments used male and female mice aged 6-8 wks (age- and sex-matched within experiments). The University of Wisconsin College of Agricultural and Life Sciences Institutional Animal Care and Use Committee approved all of the experimental protocols.
Bovine myelin basic protein (Sigma Chemical Co., St. Louis, Mo.) was dissolved at 2 mg/mL in 0.1 N acetic acid and emulsified with Complete Freund's adjuvant containing heat-killed Mycobacterium tuberculosis H37 Ra solution (Difco). Each mouse was injected subcutaneously with 0.1 mL emulsion in each hind flank (400 micrograms of MBP per mouse). On the day of immunization and again 2 days later, 200 nanograms of pertussis toxin was injected into the peritoneum. Thereafter, clinical EAE signs were scored daily as follows: 0, normal; 1, limp tail; 1.5, partial paralysis of one hind limb; 2, partial paralysis of both hind limbs; 2.5 partial paralysis of one hind limb and complete paralysis of one hind limb; 3, paralysis of both hind limbs; 4, hind and fore limb paralysis; 5, moribund.
The vitamin D3 and 1,25-(OH)2D3 were obtained from Sigma Chemical Co. The vitamin D3 was dissolved in safflower oil and stored in the dark at 5° C. The 1,25-(OH)2D3 was dissolved in 100% ethanol (1 mg/mL) and stored in the dark under nitrogen gas at −20° C. The concentration of 1,25-(OH)2D3 was determined by spectral analysis. Animals with stage 2.3±0.3 were randomized into treatment groups. The details of the treatments are given in the figure legends and table footnotes. The synthetic diet used in some experiments was formulated to contain all essential nutrients except vitamin D3 and was prepared exactly as we described (Spach and Hayes, 2005, J. Immunol. 175:4119-4126). For experiments using supplementary vitamin D3, the placebo group was fed the synthetic diet ad libidum without added vitamin D3, whereas the vitamin D3-supplemented group was fed the synthetic diet ad libidum with vitamin D3 added in an amount to provide 1 μg/d, calculated based on a daily measured consumption of 4.0 g dry weight of diet per mouse. Fresh synthetic diet was provided three times per week. At several times during the study, mice were weighed and blood samples were obtained from the tail vein. At the conclusion of the study, the mice were euthanized, a blood sample was obtained, perfusion was done, and the spinal cords and optic nerves were removed. The spinal cords were flash frozen with liquid nitrogen and stored at −70° C. prior to 1,25-(OH)2D3 extraction. Alternatively, the spinal cords were divided into 6 equal sections, aligned vertically, snap frozen in O.C.T. compound (Sakura Finetek USA, Torrance, Calif.) and stored at −70° C. for histopathology. The blood was clotted, centrifuged, and the decanted serum was frozen at −70° C. prior to analysis.
Individual mice were analyzed and the mean and SD were calculated for each group of mice. Experiments were repeated at least once. The significance of differences between the group means was determined using the Mann-Whitney test (n≦16), Student's t-test (n>16), or Chi-squared test (binomial data); p<0.05 was considered significant.

[1] = female B10.PL mice, chow-fed, 20 ng pulse dose, 14 days post treatment
[2] = female B10.PL mice, chow-fed, 200 ng injected once each week, 21 days
[3] = female B10.PL mice, chow-fed, 200 ng injected once, 21 days post treatment
[4] = female B10.PL mice, chow-fed, 200 ng pulse dose, 14 days post treatment
[5] = female B10.PL mice, chow-fed, 400 ng pulse dose, 14 days post treatment
[6] = female and male B10.PL mice, chow-fed, 0.5 (female) or 1.0 (male) nmol injected once, 14 days post treatment
[7] = male B10.PL mice, chow-fed, 20 ng pulse dose, 14 days post treatment
[8] = male B10.PL mice, chow-fed, 40 ng pulse dose, 14 days post treatment
[9] = male B10.PL mice, chow-fed, 200 ng pulse dose, 14 days post treatment
[10] = male B10.PL mice, chow-fed, 400 ng pulse dose, 14 days post treatment
[11] = male and female B10.PL mice, 200 ng 1,25-(OH)2D3 injected, 5 μg vitamin D3 gavage 24 hr later, diet 1 μg/d vitamin D3
[12] = methyl-prednisolone 200 μg/d followed by one 1,25-(OH)2D3 treatment, 28-day observation period

For `C=C1/C(=C\C=C2/CCC[C@]3(C)[C@@H]([C@H](C)CCCC(C)(C)O)CC[C@@H]23)C[C@@H](O)C[C@@H]1O` [1,25-(OH)2D3, 1,25-dihydroxy vitamin D3], the “relative potency for the treatment of acute EAE disability” value (0.5 nmol (females) or 1.0 nmol (males), compared with methyl-prednisolone) was “far superior to methyl-prednisolone”, the “reduction of cumulative disability” value (200 ng 1,25-(OH)2D3 pulse dose plus vitamin D3 (serum 25-(OH)D3 82±27), 42 day observation period) was 48% and the “cumulative disability lower than the placebo group” value (chow-fed mice with acute EAE, weekly injections of 200 ng) was 43%. For the same compound, the “EAE severity (decrease)” value [1] was 0.5 ± 1.0, the “EAE severity (final)” value [1] was 1.6 ± 1.0 and the “Remission (%)” value [1] was 75%. The “Remission (days in)” value [1] was 8.0 ± 6.3 days, the “Remission (days to)” value [1] was 2.0 ± 0.0 days and the “EAE severity (initial)” value (female B10.PL mice, chow-fed, 20 ng pulse dose) was 2.1 ± 0.1. For the same compound, the Cumulative disability (female B10.PL mice, chow-fed, 20 ng pulse dose, sum of daily scores for 14 days) was 22.1 ± 9.0, the “EAE severity (peak)” value [2] was 2.4 ± 0.4 and the “Remission” value [2] was 15.7 ± 3.4 days. The “Remission (%)” value [2] was 100%, the “Remission (minimum)” value [2] was 1.0 ± 0.0 and the “EAE severity (initial)” value (female B10.PL mice, chow-fed, 200 ng injected once each week) was 2.3 ± 0.5. For the same compound, the Cumulative disability (female B10.PL mice, chow-fed, 200 ng injected once each week, sum of daily scores for 21 days) was 31.6 ± 5.1, the “EAE severity (peak)” value [3] was 2.7 ± 0.4 and the “Remission” value [3] was 13.4 ± 3.9 days. For the same compound, the “Remission (minimum)” value [3] was 1.0 ± 0.4, the “Remission (%)” value (female B10.PL mice, chow-fed, 200 ng injected once, 21 days post treatment, remission = score ≦1.5 for two or more consecutive days) was 100% and the “EAE severity (initial)” value (female B10.PL mice, chow-fed, 200 ng injected once) was 2.6 ± 0.4. For the same compound, the Cumulative disability (female B10.PL mice, chow-fed, 200 ng injected once, sum of daily clinical scores for 21 days) was 32.9 ± 9.3, the “EAE severity (decrease)” value [4] was 1.6 ± 0.4 and the “EAE severity (final)” value [4] was 1.0 ± 0.4. The “Remission (%)” value [4] was 100%, the “Remission (days in)” value [4] was 9.2 ± 2.5 days and the “Remission (days to)” value [4] was 5.8 ± 2.5 days. For the same compound, the “EAE severity (initial)” value (female B10.PL mice, chow-fed, 200 ng pulse dose) was 2.6 ± 0.4, the Cumulative disability (female B10.PL mice, chow-fed, 200 ng pulse dose, sum of daily scores for 14 days) was 21.8 ± 4.6 and the “EAE severity (decrease)” value [5] was 1.2 ± 0.2. For the same compound, the “EAE severity (final)” value [5] was 1.0 ± 0.0, the “Remission (%)” value [5] was 100% and the “Remission (days in)” value [5] was 9.6 ± 3.0 days. For the same compound, the “Remission (days to)” value [5] was 6.2 ± 3.3 days, the “EAE severity (initial)” value (female B10.PL mice, chow-fed, 400 ng pulse dose) was 2.2 ± 0.2 and the Cumulative disability (female B10.PL mice, chow-fed, 400 ng pulse dose, sum of daily scores for 14 days) was 20.6 ± 5.2. The Cumulative disability [6] was 19.7 ± 4.4, the “EAE severity (decrease)” value [6] was 1.2 ± 0.6 and the “Remission (%)” value [6] was 92%. The “Remission (days in)” value [6] was 10.0 ± 2.2 days, the “Remission (days to)” value [6] was 4.9 ± 2.2 days and the “EAE severity (initial)” value (female and male B10.PL mice, chow-fed, 0.5 (female) or 1.0 (male) nmol of steroid compound injected once) was 2.3 ± 0.4. The “effectiveness for the treatment of EAE” value (female mice, chow-fed, 20 ng pulse dose) was “partially effective”, the “remission lasted an average of, before a relapse occurred” value (female mice, chow-fed, 200 ng pulse dose) was 14 days and the “mice that achieved a remission (EAE≦1.5 for at least two consecutive days)” value (female mice, chow-fed, 200 ng pulse dose, within 6 days) was 100%. For the same compound, the “EAE severity (decrease)” value [7] was 0.7 ± 0.4, the “EAE severity (final)” value [7] was 1.4 ± 0.5 and the “Remission (%)” value [7] was 80%. The “Remission (days in)” value [7] was 6.6 ± 4.6 days, the “Remission (days to)” value [7] was 6.3 ± 2.2 days and the “EAE severity (initial)” value (male B10.PL mice, chow-fed, 20 ng pulse dose) was 2.1 ± 0.2. For the same compound, the Cumulative disability (male B10.PL mice, chow-fed, 20 ng pulse dose, sum of daily scores for 14 days) was 24.2 ± 6.2, the “EAE severity (decrease)” value [8] was 0.5 ± 1.2 and the “EAE severity (final)” value [8] was 1.7 ± 1.0. For the same compound, the “Remission (%)” value [8] was 80%, the “Remission (days in)” value [8] was 8.0 ± 4.6 days and the “Remission (days to)” value [8] was 4.5 ± 1.7 days. The “EAE severity (initial)” value (male B10.PL mice, chow-fed, 40 ng pulse dose) was 2.2 ± 0.4, the Cumulative disability (male B10.PL mice, chow-fed, 40 ng pulse dose, sum of daily scores for 14 days) was 25.0 ± 9.0 and the “EAE severity (decrease)” value [9] was 1.0 ± 0.4. For the same compound, the “EAE severity (final)” value [9] was 1.3 ± 0.4, the “Remission (%)” value [9] was 100% and the “Remission (days in)” value [9] was 11.9 ± 2.0 days. For the same compound, the “Remission (days to)” value [9] was 6.3 ± 2.4 days, the “EAE severity (initial)” value (male B10.PL mice, chow-fed, 200 ng pulse dose) was 2.3 ± 0.3 and the Cumulative disability (male B10.PL mice, chow-fed, 200 ng pulse dose, sum of daily scores for 14 days) was 22.1 ± 3.5. The “EAE severity (decrease)” value [10] was 1.2 ± 0.2, the “EAE severity (final)” value [10] was 0.8 ± 0.3 and the “Remission (%)” value [10] was 86%. The “Remission (days in)” value [10] was 11.0 ± 1.4 days, the “Remission (days to)” value [10] was 4.2 ± 1.7 days and the “EAE severity (initial)” value (male B10.PL mice, chow-fed, 400 ng pulse dose) was 2.1 ± 0.4. The Cumulative disability (male B10.PL mice, chow-fed, 400 ng pulse dose, sum of daily scores for 14 days) was 16.9 ± 2.5, the “Remission” value [11] was 36 ± 6 days and the “Remission (%)” value [11] was 100* %. The mortality [11] was 0%, the Cumulative disability (male and female B10.PL mice, 200 ng 1,25-(OH)2D3 injected, 5 μg vitamin D3 gavage, diet 1 μg/d vitamin D3, sum of daily scores for first 42 days post treatment) was 50 ± 14 and the Cumulative disability [12] was 36±10. For the same compound, the “reduction of cumulative disability vs placebo group” value [12] was 42%, the “amelioration of EAE disease” value (mice with normal serum 25-(OH)D3 levels, 200 ng pulse dose in females and 400 ng pulse dose in males) was “optimally ameliorated EAE disease” and the “mice that did not relapse” value (one 1,25-(OH)2D3 treatment (females 200 ng; males 400 ng) after withdrawal of 200 μg/d methyl-prednisolone, 28-day observation period) was 4 of 6. The “days in remission before relapse (remaining two mice)” value (one 1,25-(OH)2D3 treatment (females 200 ng; males 400 ng) after withdrawal of methyl-prednisolone) was 14 days and 23 days.
